Data as given in PMC12369479 (Journal of Experimental Botany, 2025).
Values joined by “and” are separate entries in the source; they are usually repeats but may differ in a detail not shown here. Equal entries are not always repeated. Where two headings read alike, the source gives them in different places.

Columns and labels:
[1] = target: T1, PpADK1 (Physcomitrium patens, UniProt O49923); assay: ADK activity, coupled reaction with PK and LDH; format: biochemical, Physcomitrella patens; conditions: 100 µM substrate, 10 mM ATP, pH 7.5, 30 °C
T1 construct: made in house; host or cells: E. coli T7 Express Iq
Protocol: (§1) Substrate analogs were purchased from Sigma-Aldrich (www.sigmaaldrich.com). The ADK activity was measured spectrophotometrically on an Agilent 8453 UV-Vis spectrophotometer (www.agilent.com) at 30 °C using a coupled reaction with pyruvate kinase (PK) and lactate dehydrogenase (LDH) (www.sigmaaldrich.com) ([Blondin et al., 1994]). In this assay, PK converts ADP produced by ADK and phosphoenolpyruvate (PEP) to pyruvate. Subsequently, LDH then converts pyruvate to lactate using the coenzyme NADH, with the conversion monitored at 340 nm. The reaction was conducted in 50 mM Tris–HCl buffer at pH 7.5, containing 50 mM KCl, 6 mM MgCl2, 300 µM PEP, 200 µM NADH, 10 mM ATP, 2 U of PK, and 2.5 U of LDH, using various nucleoside substrates. Kinetic constants were determined using GraphPad Prism 8.0 software (www.graphpad.com). Each measurement was performed six times using repetitive purified enzymes. The activities of all five ADKs were also measured by HPLC ([Moffatt et al., 1991]). The reaction mixture comprised 50 mM Tris–HCl pH 7.5, 5 mM MgCl2, 0.5 mM DTT, 30 mM NaF, 5 mM ATP, 40 µM substrate, and 2–150 ng of purified ADK, depending on the isoform. The reaction was incubated at 30 °C for up to 1 h. […] Similarly, the conversion of cytokinin ribosides to monophosphates was followed on a LiChrosphere 60 RP-Select B (5 µm) LiChroCART column 125-4 column equilibrated with 10 mM triethylamine at pH 5.4 plus 10% methanol, and stepwise eluted with 100% methanol.

[2] = target: ZmADK3 (Zea mays, UniProt A0A1D6E5Z5); assay: ADK activity, coupled reaction with PK and LDH; format: biochemical; conditions: ZmADK3; 100 µM substrate; 10 mM ATP; pH 7.5; 30 °C
Protocol: Substrate analogs were purchased from Sigma-Aldrich (www.sigmaaldrich.com). […] In this assay, PK converts ADP produced by ADK and phosphoenolpyruvate (PEP) to pyruvate. Subsequently, LDH then converts pyruvate to lactate using the coenzyme NADH, with the conversion monitored at 340 nm. The reaction was conducted in 50 mM Tris–HCl buffer at pH 7.5, containing 50 mM KCl, 6 mM MgCl2, 300 µM PEP, 200 µM NADH, 10 mM ATP, 2 U of PK, and 2.5 U of LDH, using various nucleoside substrates. Kinetic constants were determined using GraphPad Prism 8.0 software (www.graphpad.com). Each measurement was performed six times using repetitive purified enzymes. […] The reaction mixture comprised 50 mM Tris–HCl pH 7.5, 5 mM MgCl2, 0.5 mM DTT, 30 mM NaF, 5 mM ATP, 40 µM substrate, and 2–150 ng of purified ADK, depending on the isoform. The reaction was incubated at 30 °C for up to 1 h.

[3] = target: T2, ZmADK2 (Zea mays, UniProt B4FFH8, T4S); assay: ADK activity, coupled reaction with PK and LDH; format: biochemical; conditions: ZmADK2, 10 mM ATP, pH 7.5, 30 °C; for Specific activity: 100 µM substrate
Protocol: as §1

[4] = target: PpADK2 (Physcomitrium patens, UniProt A9RF27); assay: ADK activity, coupled reaction with PK and LDH; conditions: 100 µM substrate, 10 mM ATP, pH 7.5, 30 °C
Protocol: as §1

[5] = target: ZmADK1 (Zea mays, UniProt K7UH13); assay: ADK activity, coupled reaction with PK and LDH; conditions: 100 µM substrate, 10 mM ATP, pH 7.5, 30 °C
Protocol: as §1

[6] = tested on: rabbit ADK; parameters: method as in Miller et al., 1979a; conditions: ref Miller et al., 1979a; cited from earlier work
[7] = target: T2, ZmADK2; assay: Binding affinity by microscale thermophoresis (MST); conditions: for Kd: MST; for weaker affinity compared with Ado: ratio of KD values
Protocol: (§2) The microscale thermophoresis (MST) method was used to determine the binding affinity of various ribosides for ZmADK2 and PpADK1. Proteins were fluorescently labeled with RED-tris-NTA dye (www.nanotemper-technologies.com) using a 1:1 dye/protein molar ratio. The labeled protein was adjusted to 100–300 nM in 50 mM HEPES buffer pH 7.5, 1 mM MgCl2, and 0.2% Tween. Measurements were performed in premium capillaries on a Monolith NT.115 instrument at 30 °C with 5 s/30 s/5 s laser off/on/off times, respectively, with continuous sample fluorescence recording. Thermal stability was measured by nano-differential scanning fluorimetry on a Prometheus NT.48 instrument (www.nanotemper-technologies.com) in various buffers covering a pH (7.0–9.5) and temperature range (25–95 °C), with a heating rate of 1 °C min^–1, and using NT melting control software. Protein unfolding was measured by detecting the temperature-induced change in tryptophan fluorescence intensity at emission wavelengths of 330±5 nm and 350±5 nm. The melting temperature (Tm) was deduced from the maximum of the first derivative of the fluorescence ratios F350/F330.

[8] = target: T1, PpADK1; assay: as above; parameters: species or system Physcomitrella patens
Protocol: as §2

[9] = 50 mM HEPES pH 7.5, 1 mM MgCl2, first or only binding event, read-out: KD
[10] = KD, 50 mM HEPES pH 7.5, 1 mM MgCl2, first or only binding event
[11] = second binding event (ATP site), read-out: second (higher) KD value

T2 sequence (B4FFH8 1-342 T4S): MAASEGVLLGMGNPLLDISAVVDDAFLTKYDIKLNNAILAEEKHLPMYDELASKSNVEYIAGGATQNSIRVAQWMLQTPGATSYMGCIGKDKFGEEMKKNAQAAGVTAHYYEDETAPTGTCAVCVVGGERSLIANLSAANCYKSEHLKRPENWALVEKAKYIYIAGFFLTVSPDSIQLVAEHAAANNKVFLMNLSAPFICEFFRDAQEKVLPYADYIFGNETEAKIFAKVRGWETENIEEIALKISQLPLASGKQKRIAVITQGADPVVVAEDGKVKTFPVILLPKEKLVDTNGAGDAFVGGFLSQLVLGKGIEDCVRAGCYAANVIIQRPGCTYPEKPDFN
ZmADK1, sequence (K7UH13 entry or part of it): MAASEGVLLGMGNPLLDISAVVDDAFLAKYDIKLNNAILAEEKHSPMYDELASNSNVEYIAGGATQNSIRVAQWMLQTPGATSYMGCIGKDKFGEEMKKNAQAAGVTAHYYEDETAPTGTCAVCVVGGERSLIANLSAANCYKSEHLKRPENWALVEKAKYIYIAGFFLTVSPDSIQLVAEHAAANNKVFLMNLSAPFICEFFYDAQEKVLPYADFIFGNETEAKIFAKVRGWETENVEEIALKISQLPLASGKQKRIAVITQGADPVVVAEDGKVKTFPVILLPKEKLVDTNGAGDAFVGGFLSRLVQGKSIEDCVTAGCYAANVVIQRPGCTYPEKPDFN
ZmADK3, sequence (A0A1D6E5Z5 entry or part of it): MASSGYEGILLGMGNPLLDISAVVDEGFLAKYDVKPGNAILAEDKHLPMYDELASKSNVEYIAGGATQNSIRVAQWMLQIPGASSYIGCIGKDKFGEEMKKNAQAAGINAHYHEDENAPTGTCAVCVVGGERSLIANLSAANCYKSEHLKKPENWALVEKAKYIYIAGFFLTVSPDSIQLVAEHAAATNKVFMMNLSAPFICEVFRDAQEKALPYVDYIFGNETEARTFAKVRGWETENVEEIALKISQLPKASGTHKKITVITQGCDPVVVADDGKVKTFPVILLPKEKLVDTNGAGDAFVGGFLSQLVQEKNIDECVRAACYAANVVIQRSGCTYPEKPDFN
PpADK2, sequence (A9RF27 entry or part of it): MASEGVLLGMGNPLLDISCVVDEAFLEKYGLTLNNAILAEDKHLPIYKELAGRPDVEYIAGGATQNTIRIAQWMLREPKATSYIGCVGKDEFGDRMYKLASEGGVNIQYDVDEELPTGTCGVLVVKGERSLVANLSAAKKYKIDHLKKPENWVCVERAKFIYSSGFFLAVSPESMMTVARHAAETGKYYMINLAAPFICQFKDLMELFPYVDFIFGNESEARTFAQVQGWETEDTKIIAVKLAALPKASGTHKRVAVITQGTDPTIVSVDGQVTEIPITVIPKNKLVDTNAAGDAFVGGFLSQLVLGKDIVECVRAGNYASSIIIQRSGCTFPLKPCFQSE
T1 sequence (O49923 whole entry): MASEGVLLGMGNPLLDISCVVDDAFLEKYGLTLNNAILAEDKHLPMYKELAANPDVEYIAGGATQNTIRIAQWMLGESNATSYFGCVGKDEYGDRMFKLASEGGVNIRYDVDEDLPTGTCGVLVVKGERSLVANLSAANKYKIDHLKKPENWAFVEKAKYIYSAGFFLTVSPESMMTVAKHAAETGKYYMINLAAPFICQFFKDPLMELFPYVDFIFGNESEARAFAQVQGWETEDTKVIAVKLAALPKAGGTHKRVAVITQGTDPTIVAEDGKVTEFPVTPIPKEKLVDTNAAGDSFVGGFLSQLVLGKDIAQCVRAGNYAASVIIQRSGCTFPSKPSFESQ

C/C(=C\CNc1ncnc2c1ncn2[C@@H]1O[C@H](CO)[C@@H](O)[C@H]1O)CO (relative stereo) [tZR, trans-zeatin riboside]
Specific activity [1]: 0.74±0.06 nmol s^–1 mg^–1
Specific activity [2]: 2.7±0.4 nmol s^–1 mg^–1
Specific activity [3]: 3.8±0.4 nmol s^–1 mg^–1
Specific activity [4]: 0.83±0.08 nmol s^–1 mg^–1
Specific activity [5]: 2.7±0.3 nmol s^–1 mg^–1

Nc1ncnc2c1ncn2C1CC(O)C(CO)O1 (centres unmarked) [2′-DeoxyAdo]
Km [3]: 506 ± 39 µM
kcat [3]: 0.46±0.02 s^–1
Km ([3]; listed as 2′-deoxyAdo): ~500 µM
Km [6]: 575 µM
Kd ([7]; 50 mM HEPES pH 7.5, 1 mM MgCl2, first or only binding event, listed as 2′-deoxyAdo, read-out: KD): ~500 µM
Kd [7, 9]: 505 ± 94 µM
weaker affinity compared with Ado [7]: ~ 1200 fold

Nc1ncnc2c1ncn2[C@@H]1O[C@H](CO)C[C@H]1O [3′-DeoxyAdo, cordycepin]
Km [6]: 254 µM
Kd [7, 10]: 175 ± 9 µM

Nc1ncnc2c1ccn2[C@@H]1O[C@H](CO)[C@@H](O)[C@H]1O [7-DeazaAdo, tubercidin]
Km [3]: 3.4 ± 0.4 µM
kcat [3]: 0.17±0.01 s^–1
Kd [7, 10]: 2.2 ± 0.7 µM
weaker affinity compared with Ado [7]: ~ 5.5 fold

Nc1ncnc2c1ncn2[C@@H]1O[C@H](COP(=O)(O)OP(=O)(O)O)[C@@H](O)[C@H]1O [ADP]
Kd ([7]; 50 mM HEPES pH 7.5, 1 mM MgCl2, read-out: KD): 10300 ± 1200 µM

Nc1ncnc2c1ncn2C1OC(COP(=O)(O)O)C(O)C1O (centres unmarked) [AMP]
Kd [8, 9]: 121 µM
Kd [8, 11]: 8300 µM
Kd [7, 10]: 247 ± 71 µM
Kd ([7]; second KD value, KD(2), second binding event (ATP site)): ~8000 µM and 8300 µM
Kd ([7]; second KD value, second binding event (ATP site)): 8300 ± 2070 µM

Nc1ncnc2c1ncn2[C@@H]1O[C@H](COP(=O)(O)OP(=O)(O)OP(=O)(O)OP(=O)(O)OP(=O)(O)OC[C@H]2O[C@@H](n3cnc4c(N)ncnc43)[C@H](O)[C@@H]2O)[C@@H](O)[C@H]1O [AP5A, diadenosine pentaphosphate]
Kd [8, 9]: 8.1 ± 1.1 µM
Kd [8, 11]: 630 ± 120 µM
Kd [7, 9]: 14.5 ± 9.2 µM
Kd ([7]; second binding event (ATP site), read-out: second KD value): 949 ± 46 µM

Nc1ncnc2c1ncn2[C@@H]1O[C@H](CO)[C@@H](O)[C@@H]1O [AraA, Adenine arabinoside]
Kd [7, 10]: > 500 µM

OC[C@H]1O[C@@H](n2cnc3c(NCc4ccccc4)ncnc32)[C@H](O)[C@@H]1O [BAPR, 6-benzylaminopurine riboside]
Specific activity [1]: 0.84±0.04 nmol s^–1 mg^–1
Specific activity [2]: 5.3±0.4 nmol s^–1 mg^–1
Specific activity [3]: 5.1±0.6 nmol s^–1 mg^–1
Specific activity [4]: 0.89±0.07 nmol s^–1 mg^–1
Specific activity [5]: 3.3±0.2 nmol s^–1 mg^–1
Km [6]: 12 µM
activity compared with Ado [6]: 29%

Nc1ccn([C@@H]2O[C@H](CO)[C@@H](O)[C@H]2O)c(=O)n1 [Cytidine]
Kd [7, 10]: 286 ± 10 µM

Nc1nc2c(ncn2[C@@H]2O[C@H](CO)[C@@H](O)[C@H]2O)c(=O)[nH]1 [Guanosine]
Kd [7, 10]: 217 ± 107 µM

OC[C@H]1O[C@@H](n2cnc3c(O)ncnc32)[C@H](O)[C@@H]1O [Inosine]
Kd [7, 10]: 440 ± 180 µM

CN(C)c1ncnc2c1ncn2[C@@H]1O[C@H](CO)[C@@H](O)[C@H]1O [N ^6,N^6-DimethylAdo, 6-(dimethylamino)-9H-purine-9-β-D-riboside]
Specific activity [1]: 0.91±0.02 nmol s^–1 mg^–1
Specific activity [2]: 5.1±0.4 nmol s^–1 mg^–1
Specific activity [3]: 3.2±0.0 nmol s^–1 mg^–1
Km [3]: 11.2 ± 2.8 µM
kcat [3]: 0.20±0.02 s^–1
Specific activity [4]: 0.86±0.03 nmol s^–1 mg^–1
Specific activity [5]: 3.0±0.3 nmol s^–1 mg^–1
Kd [7, 9]: 12.3 ± 4.6 µM

CC(C)CNc1ncnc2c1ncn2[C@@H]1O[C@H](CO)[C@@H](O)[C@H]1O [N ^6-IsobutylAdo]
Specific activity [1]: 0.90±0.06 nmol s^–1 mg^–1
Specific activity [2]: 4.8±0.5 nmol s^–1 mg^–1
Specific activity [3]: 4.2±0.6 nmol s^–1 mg^–1
Km [3]: 70.4 ± 8.9 µM
kcat [3]: 0.21±0.01 s^–1
Specific activity [4]: 0.75±0.08 nmol s^–1 mg^–1
Specific activity [5]: 2.1±0.4 nmol s^–1 mg^–1
Kd [7, 9]: 45.9 ± 9.3 µM

CC(C)Nc1ncnc2c1ncn2[C@@H]1O[C@H](CO)[C@@H](O)[C@H]1O [N ^6-IsopropylAdo]
Specific activity [1]: 0.96±0.09 nmol s^–1 mg^–1
Specific activity [2]: 3.8±0.3 nmol s^–1 mg^–1
Specific activity [3]: 3.9±0.5 nmol s^–1 mg^–1
Km [3]: 54.8 ± 5.8 µM
kcat [3]: 0.19±0.01 s^–1
Specific activity [4]: 0.83±0.05 nmol s^–1 mg^–1
Specific activity [5]: 2.2±0.2 nmol s^–1 mg^–1
Kd [7, 9]: 52.8 ± 13.9 µM

CNc1ncnc2c1ncn2[C@@H]1O[C@H](CO)[C@@H](O)[C@H]1O [N ^6-MethylAdo, 6-methylamino-9H-purine-9-β-D-riboside]
Specific activity [1]: 0.89±0.00 nmol s^–1 mg^–1
Specific activity [2]: 5.1±0.4 nmol s^–1 mg^–1
Specific activity [3]: 2.9±0.3 nmol s^–1 mg^–1
Km [3]: 10.7 ± 1.5 µM
kcat [3]: 0.24±0.02 s^–1
Specific activity [4]: 0.86±0.03 nmol s^–1 mg^–1
Specific activity [5]: 2.7±0.2 nmol s^–1 mg^–1
Kd [7, 9]: 8.7 ± 2.5 µM

O=c1ccn([C@@H]2O[C@H](CO)[C@@H](O)[C@H]2O)c(=O)[nH]1 [Uridine]
Km [3]: > 1000 µM
kcat [3]: 0.15±0.03 s^–1
Kd [7, 10]: > 5000 µM

O=c1[nH]c(=O)c2ncn([C@@H]3O[C@H](CO)[C@@H](O)[C@H]3O)c2[nH]1 [Xanthosine]
Kd [7, 10]: 166 ± 77 µM

C/C(=C\CNc1ncnc2c1ncn2[C@@H]1O[C@H](CO)[C@@H](O)[C@H]1O)CO [ZR]
Km [6]: 20 µM
activity compared with Ado [6]: 6.3%
